Columns and labels:
[1] = Cell viability assay (MTT) on MCF-10A; format: cell-based; details: human, MCF-10A mammary epithelial cells, four days
Experimental: A human mammary gland epithelial cell line was used in the cell viability assay (MCF-10A). MCF-10A cells were incubated with compounds 8a–l for four days, and cell viability was determined using an MTT assay.
An MTT assay was performed to investigate the effect of the synthesized compounds on mammary epithelial cells (MCF-10A) at a concentration of 50 µM for the tested compound. The cells were propagated in a medium consisting of Ham’s F-12 medium/Dulbecco’s modified Eagle’s medium (DMEM) (1:1) supplemented with 10% fetal calf serum, 2 mM glutamine, insulin (10 μg/mL), hydrocortisone (500 ng/mL), and epidermal growth factor (20 ng/mL). Trypsin ethylenediamine tetra acetic acid (EDTA) was used to pass the cells every 2–3 days. Ninety-six-well flat-bottomed cell culture plates were used to seed the cells at a density of 10^4 cells mL^−1. The medium was aspirated from all the wells of culture plates after 24 h followed by the addition of synthesized compounds (in 200 μL medium to yield a final concentration of 0.1% (v/v) dimethylsulfoxide) into individual wells of the plates. Four wells were designated to a single compound. The plates were allowed to incubate at 37 °C for 96 h. Afterward, the medium was aspirated, and 3-[4,5-dimethylthiazol-2-yl]-2,5-diphenyltetrazolium bromide (MTT) (0.4 mg/mL) in the medium was added to each well and subsequently incubated for 3 h. The medium was aspirated, and 150 μL dimethyl sulfoxide (DMSO) was added to each well. The plates were vortexed, followed by the measurement of absorbance at 540 nm on a microplate reader. The results were presented as inhibition (%) of proliferation compared to controls comprising 0.1% DMSO.

[2] = system: epithelial cancer cell line (A-549); assay: Anti-proliferative propidium iodide fluorescence assay, A-549; format: cell-based; details: Homo sapiens, A549; read-out: Anti-Proliferative Activity IC50 ± SEM, A-549
Experimental: (§1) Tested 8a–l compounds were assessed for their anti-proliferative activity against four human cancer cell lines, including the pancreatic cancer cell line (Panc-1), breast cancer cell line (MCF-7), colon cancer cell line (HT-29), and epithelial cancer cell line (A-549) using propidium iodide fluorescence assay and the reference doxorubicin. Results (IC50) are illustrated in Table 3.
(§2) To explore the anti-proliferative potential of compounds, propidium iodide fluorescence assay was performed using different cell lines such as Panc-1 (pancreas cancer cell line), MCF-7 (breast cancer cell line), HT-29 (colon cancer cell line), and A-549 (epithelial cancer cell line), respectively. To calculate the total nuclear DNA, a fluorescent dye (propidium iodide, PI) is used to attach to the DNA, thus offering a quick and precise technique. PI cannot pass through the cell membrane, and its signal intensity can be considered as directly proportional to the quantity of cellular DNA. Cells whose cell membranes are damaged or have changed permeability are counted as dead ones. The assay was performed by seeding the cells of different cell lines at a density of 3000–7500 cells/well (in 200 μL medium) in culture plates followed by incubation for 24 h at 37 °C in humidified 5%CO2/95% air atmospheric conditions. The medium was removed; the compounds were added to the plates at 10 μM concentrations (in 0.1% DMSO) in triplicates, followed by incubation for 48h. DMSO (0.1%) was used as a control. After incubation, the medium was removed, followed by the addition of PI (25 μL, 50 μg/mL in water/medium) to each well of the plates. At −80 °C, the plates were allowed to freeze for 24 h, followed by thawing at 25 °C. A fluorometer (Polar-Star BMG Tech, Beijing, China) was used to record the readings at excitation and emission wavelengths of 530 and 620 nm for each well. The percentage cytotoxicity of compounds was calculated using the following formula: % Cytotoxicity=AC−ATC/AC×100 where ATC = absorbance of treated cells and AC = absorbance of control. Doxorubicin was used as a positive control in the assay.

[3] = system: breast cancer cell line (MCF-7); assay: Anti-proliferative propidium iodide fluorescence assay, MCF-7; format: cell-based; details: Homo sapiens, MCF7; read-out: Anti-Proliferative Activity IC50 ± SEM, MCF-7
Experimental: as §1, §2

[4] = system: pancreatic cancer cell line (Panc-1); assay: Anti-proliferative propidium iodide fluorescence assay, Panc-1; format: cell-based; details: Homo sapiens, read-out: Anti-Proliferative Activity IC50 ± SEM, Panc-1
Experimental: as §1, §2

[5] = system: colon cancer cell line (HT-29); assay: Anti-proliferative propidium iodide fluorescence assay, HT-29; format: cell-based; details: Homo sapiens, read-out: Anti-Proliferative Activity IC50 ± SEM, HT-29
Experimental: as §1, §2

[6] = system: A-549, MCF-7, Panc-1 and HT-29 cell lines; assay: Average anti-proliferative IC50 over the four cancer cell lines; format: cell-based, human; details: for IC50: Homo sapiens, average of A-549, MCF-7, Panc-1, HT-29; for fold decrease in activity relative to 8c: from average IC50
Experimental: as §1, with “doxorubicin.” for “doxorubicin. Results (IC50) are illustrated in Table 3.”
as §2

active Caspase 3 = assay: Caspase 3 activation assay in MCF-7
Experimental: All reagents were allowed to reach room temperature before use. All liquid reagents were gently mixed before use. The number of 8-well strips needed for the assay was determined. These were inserted into the frame(s) for current use. A total of 100 μL of the Standard Diluent Buffer was added to the zero standard wells. Well(s) reserved for chromogen blank were left empty. A total of 100 μL of standards and controls or diluted samples was added to the appropriate microtiter wells. The sample dilution chosen was optimized for each experimental system. The side of the plate was gently tapped on to mix. Wells were covered with a plate cover and incubated for 2 h at room temperature. […]
The working dilution was prepared as described in Preparing IgG HRP. […] The incubation time for chromogen substrate was determined by the microtiter plate reader used.
Many plate readers have the capacity to record a maximum optical density (O.D.) of 2.0. The O.D. values were monitored, and the substrate reaction was stopped before the O.D. of the positive wells exceeds the limits of the instrument. The O.D. values at 450 nm could only be read after the Stop Solution had been added to each well. […] The absorbance of each well was read at 450 nm, having blanked the plate reader against a chromogen blank composed of 100 μL each of Stabilized Chromogen and Stop Solution. […]

**Q.** What does the source list for `Cc1ccc2[nH]c(=O)cc(-n3cc(COc4ccc(C(c5c(O)c6ccccc6n(C)c5=O)c5c(O)c6ccccc6n(C)c5=O)cc4)nn3)c2c1` [Compound 8j, 3,3’-((4-((1-(6-Methyl-2-oxo-1,2-dihydroquinolin-4-yl)-1H-1,2,3-triazol-4-yl)methoxy)phenyl)methylene)bis(4-hydroxy-1-methylquinolin-2(1H)-one)]?
**A.** viability at 96 h, 50 µM [1]: 81%; IC50 [2]: 22.5 ± 0.2 µM; IC50 [3]: 22.1 ± 0.1 µM; IC50 [4]: 22.4 ± 0.2 µM; IC50 [5]: 22.9 ± 0.6 µM; IC50 [6]: 22.5 µM

**Q.** With `COc1ccc2[nH]c(=O)cc(-n3cc(COc4ccc(C(c5c(O)c6ccccc6n(C)c5=O)c5c(O)c6ccccc6n(C)c5=O)cc4)nn3)c2c1` [Compound 8k] as the molecule, how does the viability at 96 h, 50 µM [1] read?
**A.** 90%

**Q.** What about the IC50 [2] of the same molecule?
**A.** 14.5 ± 2.6 µM

**Q.** And the IC50 [3]?
**A.** 13.6 ± 2.2 µM

**Q.** What about the IC50 [4] of the same molecule?
**A.** 14.6 ± 2.9 µM

**Q.** What about the IC50 [5] of the same molecule?
**A.** 14.8 ± 1.4 µM

**Q.** And the IC50 [6]?
**A.** 14.4 µM

**Q.** Which results are given for `Cn1c(=O)cc(-n2cc(COc3ccc(C(c4c(O)c5ccccc5n(C)c4=O)c4c(O)c5ccccc5n(C)c4=O)cc3)nn2)c2ccccc21` [Compound 8l, 3,3’-((4-((1-(1-Methyl-2-oxo-1,2-dihydroquinolin-4-yl)-1H-1,2,3-triazol-4-yl)methoxy)phenyl)methylene)bis(4-hydroxy-1-methylquinolin-2(1H)-one)]?
**A.** viability at 96 h, 50 µM [1]: 96%; IC50 [2]: 25.3 ± 2.5 µM; IC50 [3]: 24.9 ± 1.8 µM; IC50 [4]: 24.5 ± 2.3 µM; IC50 [5]: 24.2 ± 1.4 µM; IC50 [6]: 24.7 µM; fold reduction of the average IC50 value relative to 8a ([6]; replacement of NH by N-CH3): at least 4 fold

**Q.** For `Cc1ccc2[nH]c(=O)cc(-n3cc(COc4ccc(C(c5c(O)c6ccccc6[nH]c5=O)c5c(O)c6ccccc6[nH]c5=O)cc4)nn3)c2c1` [Compound 8b, 3,3’-((4-((1-(6-Methyl-2-oxo-1,2-dihydroquinolin-4-yl)-1H-1,2,3-triazol-4-yl)methoxy)phenyl)methylene)bis(4-hydroxyquinolin-2(1H)-one)], which viability at 96 h, 50 µM [1] is on record?
**A.** 87%

**Q.** What about the IC50 [2] of the same molecule?
**A.** 7.6 ± 0.8 µM

**Q.** And the IC50 [3]?
**A.** 6.9 ± 0.8 µM

**Q.** What about the IC50 [4] of the same molecule?
**A.** 7.6 ± 0.6 µM

**Q.** And the IC50 [5]?
**A.** 7.5 ± 0.4 µM

**Q.** What about the IC50 [6] of the same molecule?
**A.** 7.4 µM

**Q.** What about the “fold decrease in activity relative to 8c” value [6] of the same molecule?
**A.** 2 fold

**Q.** Which results are given for `Cn1c(=O)cc(-n2cc(COc3ccc(C(c4c(O)c5ccccc5[nH]c4=O)c4c(O)c5ccccc5[nH]c4=O)cc3)nn2)c2ccccc21` [Compound 8d, 3,3’-((4-((1-(1-Methly-2-oxo-1,2-dihydroquinolin-4-yl)-1H-1,2,3-triazol-4-yl)methoxy)phenyl)methylene)bis(4-hydroxyquinolin-2(1H)-one)]?
**A.** viability at 96 h, 50 µM [1]: 89%; IC50 [2]: 12.9 ± 0.8 µM; IC50 [3]: 11.5 ± 1.1 µM; IC50 [4]: 11.6 ± 0.8 µM; IC50 [5]: 11.4 ± 1.2 µM; IC50 [6]: 11.8 µM

**Q.** Which results are given for `COc1ccc2[nH]c(=O)c(C(c3ccc(OCc4cn(-c5cc(=O)n(C)c6ccccc56)nn4)cc3)c3c(O)c4cc(OC)ccc4[nH]c3=O)c(O)c2c1` [Compound 8h, 3,3’-((4-((1-(1-Methly-2-oxo-1,2-dihydroquinolin-4-yl)-1H-1,2,3-triazol-4-yl)methoxy)phenyl)methylene)bis(4-hydroxy-6-methoxyquinolin-2(1H)-one)]?
**A.** viability at 96 h, 50 µM [1]: 90%; IC50 [2]: 10.7 ± 2.5 µM; IC50 [3]: 10.6 ± 2.9 µM; IC50 [4]: 10.8 ± 1.9 µM; IC50 [5]: 10.8 ± 1.6 µM; IC50 [6]: 10.7 µM

**Q.** What does the source list for `COc1ccc2[nH]c(=O)c(C(c3ccc(OCc4cn(-c5cc(=O)[nH]c6ccc(C)cc56)nn4)cc3)c3c(O)c4cc(OC)ccc4[nH]c3=O)c(O)c2c1` [Compound 8f, 3,3’-((4-((1-(6-Methyl-2-oxo-1,2-dihydroquinolin-4-yl)-1H-1,2,3-triazol-4-yl)methoxy)phenyl)methylene)bis(4-hydroxy-6-methoxyquinolin-2(1H)-one)]?
**A.** viability at 96 h, 50 µM [1]: 87%; IC50 [2]: 2.9 ± 0.5 µM; IC50 [3]: 2.6 ± 0.8 µM; IC50 [4]: 3.1 ± 0.2 µM; IC50 [5]: 3.4 ± 0.2 µM; IC50 [6]: 3 µM; Caspase 3 Conc (active Caspase 3; MCF-7): 365.60 ± 3.20 pg/mL; Caspase 3 Fold Change (active Caspase 3; MCF-7, versus untreated control): 5.57 fold

**Q.** Which viability at 96 h, 50 µM [1] does the source give for `COc1ccc2[nH]c(=O)cc(-n3cc(COc4ccc(C(c5c(O)c6ccccc6[nH]c5=O)c5c(O)c6ccccc6[nH]c5=O)cc4)nn3)c2c1` [Compound 8c, 3,3’-((4-((1-(6-Methoxy-2-oxo-1,2-dihydroquinolin-4-yl)-1H-1,2,3-triazol-4-yl)methoxy)phenyl)methylene)bis(4-hydroxyquinolin-2(1H)-one)] here?
**A.** 91%

**Q.** What about the IC50 [2] of the same molecule?
**A.** 3.9 ± 0.5 µM

**Q.** And the IC50 [3]?
**A.** 3.2 ± 0.08 µM

**Q.** And the IC50 [4]?
**A.** 4.1 ± 0.2 µM

**Q.** And the IC50 [5]?
**A.** 4.2 ± 0.2 µM

**Q.** And the IC50 [6]?
**A.** 3.85 µM

**Q.** What does the source list for `O=c1cc(-n2cc(COc3ccc(C(c4c(O)c5ccccc5[nH]c4=O)c4c(O)c5ccccc5[nH]c4=O)cc3)nn2)c2ccccc2[nH]1` [Compound 8a, 3,3’-((4-((1-(2-oxo-1,2-dihydroquinolin-4-yl)-1H-1,2,3-triazol-4-yl)methoxy)phenyl)-methylene)bis(4-hydroxyquinolin-2(1H)-one)]?
**A.** viability at 96 h, 50 µM [1]: 89%; IC50 [2]: 5.7 ± 0.4 µM; IC50 [3]: 5.3 ± 0.8 µM; IC50 [4]: 5.6 ± 0.6 µM; IC50 [5]: 5.7 ± 0.4 µM; IC50 [6]: 5.58 µM; fold decrease in activity relative to 8c [6]: 1.5 fold

**Q.** With `Cn1c(=O)c(C(c2ccc(OCc3cn(-c4cc(=O)[nH]c5ccccc45)nn3)cc2)c2c(O)c3ccccc3n(C)c2=O)c(O)c2ccccc21` [Compound 8i, 3,3’-((4-((1-(2-oxo-1,2-dihydroquinolin-4-yl)-1H-1,2,3-triazol-4-yl)methoxy)phenyl)-methylene)bis(4-hydroxy-1-methylquinolin-2(1H)-one)] as the molecule, how does the viability at 96 h, 50 µM [1] read?
**A.** 90%

**Q.** And the IC50 [2]?
**A.** 17.9 ± 0.3 µM

**Q.** What about the IC50 [3] of the same molecule?
**A.** 17.8 ± 1.6 µM

**Q.** What about the IC50 [4] of the same molecule?
**A.** 17.6 ± 1.5 µM

**Q.** And the IC50 [5]?
**A.** 17.9 ± 1.1 µM

**Q.** And the IC50 [6]?
**A.** 17.8 µM

— article PMC8620910, “Design and Synthesis of (2-oxo-1,2-Dihydroquinolin-4-yl)-1,2,3-triazole Derivatives via Click Reaction: Potential Apoptotic Antiproliferative Agents” (Molecules, 2021)
